Reference: publication PMC8535176, “Efficacy of epetraborole against Mycobacterium abscessus is increased with norvaline” (PLoS Pathogens, 2021)
Converted amounts (≈) assume the structure as drawn. Where two headings read alike, the source gives them in different places.

Experiments:
Test in all cases: microbe, parasite or virus in culture
[1] = tested on: B. cereus; set-up: Whole-cell growth inhibition, dose-response MIC (MIC90) by resazurin microtiter assay (REMA), fluorescence read-out; conditions: Bacillus cereus
[2] = tested on: C. glutamicum; set-up: Whole-cell growth inhibition, dose-response MIC (MIC90) by resazurin microtiter assay (REMA), fluorescence read-out; conditions: Corynebacterium glutamicum
[3] = tested on: E. coli; set-up: Whole-cell growth inhibition, dose-response MIC (MIC90) by resazurin microtiter assay (REMA), fluorescence read-out; conditions: Escherichia coli
[4] = tested on: M. abscessus; set-up: Whole-cell growth inhibition, dose-response MIC (MIC90) by resazurin microtiter assay (REMA), fluorescence read-out; conditions: Mycobacteroides abscessus
[5] = tested on: M. avium hominissuis; set-up: Whole-cell growth inhibition, dose-response MIC (MIC90) by resazurin microtiter assay (REMA), fluorescence read-out; conditions: Mycobacterium avium
[6] = tested on: M. avium intracellulaire; set-up: Whole-cell growth inhibition, dose-response MIC (MIC90) by resazurin microtiter assay (REMA), fluorescence read-out; conditions: Mycobacterium avium
[7] = tested on: T1, M. tuberculosis Erdman; set-up: Whole-cell growth inhibition, dose-response MIC (MIC90) by resazurin microtiter assay (REMA), fluorescence read-out; conditions: Mycobacterium tuberculosis, ERDMAN
T1 construct: Erdman

[8] = tested on: T2, M. tuberculosis H37Rv; set-up: Whole-cell growth inhibition, dose-response MIC (MIC90) by resazurin microtiter assay (REMA), fluorescence read-out; conditions: Mycobacterium tuberculosis, H37RV
T2 construct: H37Rv

[9] = tested on: P. aeruginosa; set-up: Whole-cell growth inhibition, dose-response MIC (MIC90) by resazurin microtiter assay (REMA), fluorescence read-out; conditions: Pseudomonas aeruginosa
[10] = tested on: T3, Mycobacteroides abscessus subsp. abscessus MT16_1065; set-up: species or system M. abscessus; Resazurin microtiter assay (REMA), fluorescence; MIC at 90% growth inhibition from Gompertz fit; conditions: 48 h, smooth morphotype
T3 construct: MT16_1065
Description: (§1) MIC values were determined using the resazurin microtiter assay (REMA). Cultures were grown to log phase (OD600 of 0.4–0.8) and diluted to OD600 of 0.005. Drugs were prepared in two-fold serial dilutions in 96-well plates with 90 μL of bacteria per well to a final volume of 100 μL. Plates were incubated at 37°C until drug-free wells were turbid (2 days for M. abscessus). Ten μL of resazurin (0.025% wt/vol) was added to each well. Once the drug-free wells turned pink (one doubling time), the fluorescence (ex/em 560nm/590nm) was measured using an Infinite F200 Tecan plate reader. Fluorescence intensities were converted to % viable cells relative to drug-free conditions and fit to the Gompertz equation using GraphPad Prism version 9. MIC values at 90% growth inhibition were determined from the nonlinear regression Gompertz equation. Next, we tested the in vitro activity of EPT against a panel of M. abscessus clinical isolates belonging to the three subspecies of the M. abscessus complex (M. abscessus, M. massiliense, and M. bolletii) with smooth and rough colony morphologies and with different drug susceptibility profiles to various antibiotics. There was no loss in activity against clinical isolates (range of 0.014–0.046 μg/mL) nor different morphologies (S2 Table). To determine the spectrum of activity of EPT, we curated a panel of various mycobacteria and representative gram-positive and gram-negative bacteria. […] Mycobacteria strains were grown in rolling [compound left out] culture at 37°C in Middlebrook 7H9 (Difco) supplemented with 10% albumin dextrose catalase (ADC), 0.2% glycerol, and 0.05% Tween 80 (7H9 complete) or on 7H10 agar plates supplemented with 10% oleic acid ADC and 0.5% glycerol at 37°C. When mentioned, the carbon source was modified from glycerol to acetate or the detergent Tween 80 was removed from the media. Bacillus cereus (clinical isolate), Corynebacterium glutamicum (ATCC 13032), Escherichia coli, and Pseudomonas aeruginosa PAO1 were grown in LB broth. HepG2 cells (ATCC HB-8065) were grown in Dulbecco’s modified Eagle’s medium (DMEM) with phenol red (from Gibco) supplemented with 10% fetal bovine serum at 37°C with 5% CO2.

[11] = tested on: T4, Mycobacteroides abscessus subsp. abscessus MT16_6490; set-up: species or system M. abscessus; Resazurin microtiter assay (REMA), fluorescence; MIC at 90% growth inhibition from Gompertz fit; conditions: 48 h, smooth morphotype
T4 construct: MT16_6490
Description: as §1

[12] = tested on: T5, Mycobacteroides abscessus subsp. bolletii AV; set-up: species or system M. abscessus; Resazurin microtiter assay (REMA), fluorescence; MIC at 90% growth inhibition from Gompertz fit; conditions: 48 h, smooth morphotype
T5 construct: AV
Description: as §1

[13] = tested on: T6, Mycobacteroides abscessus subsp. bolletii Paris 167; set-up: species or system M. abscessus; Resazurin microtiter assay (REMA), fluorescence; MIC at 90% growth inhibition from Gompertz fit; conditions: 48 h, rough morphotype
T6 construct: Paris 167
Description: as §1

[14] = tested on: T7, Mycobacteroides abscessus subsp. massiliense MT15_1748; set-up: species or system M. abscessus; Resazurin microtiter assay (REMA), fluorescence; MIC at 90% growth inhibition from Gompertz fit; conditions: 48 h, rough morphotype
T7 construct: MT15_1748
Description: as §1

[15] = tested on: T8, Mycobacteroides abscessus subsp. massiliense MT15_1749; set-up: species or system M. abscessus; Resazurin microtiter assay (REMA), fluorescence; MIC at 90% growth inhibition from Gompertz fit; conditions: 48 h, rough morphotype
T8 construct: MT15_1749
Description: as §1

[16] = tested on: T9, Mycobacteroides abscessus subsp. abscessus ATCC 19977; set-up: species or system M. abscessus; Resazurin microtiter assay (REMA), fluorescence; MIC at 90% growth inhibition from Gompertz fit; conditions: ATCC19977, 48 h, rough morphotype
T9 construct: ATCC 19977
Description: as §1

CO[C@@]1(NC(=O)Cc2cccs2)C(=O)N2C(C(=O)O)=C(COC(N)=O)CS[C@@H]21 [Cefoxitin]
MIC ([1]; read-out: MIC (µg/mL) / CFX): > 98 µg/mL | MIC ([2]; read-out: MIC (µg/mL) / CFX): 98 µg/mL (≈ 229 µM) | MIC ([3]; read-out: MIC (µg/mL) / CFX): 4 µg/mL (≈ 9.36 µM) | MIC ([4]; read-out: MIC (µg/mL) / CFX): 12 µg/mL (≈ 28.1 µM) | MIC ([5]; read-out: MIC (µg/mL) / CFX): 4.7 µg/mL (≈ 11 µM) | MIC ([6]; read-out: MIC (µg/mL) / CFX): 0.42 µg/mL (≈ 0.983 µM) | MIC ([7]; read-out: MIC (µg/mL) / CFX): > 98 µg/mL | MIC ([8]; read-out: MIC (µg/mL) / CFX): > 98 µg/mL | MIC ([9]; read-out: MIC (µg/mL) / CFX): > 98 µg/mL | MIC ([10]; read-out: MIC CFX): 13 mg/L (≈ 30.4 µM) | MIC ([11]; read-out: MIC CFX): 13 mg/L (≈ 30.4 µM) | MIC ([12]; read-out: MIC CFX): 15 mg/L (≈ 35.1 µM) | MIC ([13]; read-out: MIC CFX): 16 mg/L (≈ 37.4 µM) | MIC ([14]; read-out: MIC CFX): 26 mg/L (≈ 60.8 µM) | MIC ([15]; read-out: MIC CFX): 16 mg/L (≈ 37.4 µM)

CC[C@H]1OC(=O)[C@H](C)[C@@H](O[C@H]2C[C@@](C)(OC)[C@@H](O)[C@H](C)O2)[C@H](C)[C@@H](O[C@@H]2O[C@H](C)C[C@H](N(C)C)[C@H]2O)[C@](C)(OC)C[C@@H](C)C(=O)[C@H](C)[C@@H](O)[C@]1(C)O [Clarithromycin]
MIC ([1]; read-out: MIC (µg/mL) / CLR): > 8.2 µg/mL | MIC ([2]; read-out: MIC (µg/mL) / CLR): > 8.2 µg/mL | MIC ([3]; read-out: MIC (µg/mL) / CLR): > 8.2 µg/mL | MIC ([4]; read-out: MIC (µg/mL) / CLR): 0.9 µg/mL (≈ 1.2 µM) | MIC ([5]; read-out: MIC (µg/mL) / CLR): 0.18 µg/mL (≈ 0.241 µM) | MIC ([6]; read-out: MIC (µg/mL) / CLR): 0.014 µg/mL (≈ 0.0187 µM) | MIC ([7]; read-out: MIC (µg/mL) / CLR): > 1.3 µg/mL | MIC ([8]; read-out: MIC (µg/mL) / CLR): > 1.3 µg/mL | MIC ([9]; read-out: MIC (µg/mL) / CLR): > 8.2 µg/mL | MIC ([16]; read-out: MIC CLR): 0.65 mg/L (≈ 0.869 µM) | MIC ([10]; read-out: MIC CLR): 3.4 mg/L (≈ 4.55 µM) | MIC ([11]; read-out: MIC CLR): 2.9 mg/L (≈ 3.88 µM) | MIC ([12]; read-out: MIC CLR): 0.15 mg/L (≈ 0.201 µM) | MIC ([13]; read-out: MIC CLR): 2.8 mg/L (≈ 3.74 µM) | MIC ([14]; read-out: MIC CLR): 0.068 mg/L (≈ 0.0909 µM) | MIC ([15]; read-out: MIC CLR): 0.082 mg/L (≈ 0.11 µM)

CO[C@H]1/C=C/O[C@@]2(C)Oc3c(C)c(O)c4c(O)c(c(/C=N/N5CCN(C)CC5)c(O)c4c3C2=O)NC(=O)/C(C)=C\C=C\[C@H](C)[C@H](O)[C@@H](C)[C@@H](O)[C@@H](C)[C@H](OC(C)=O)[C@@H]1C [Rifampicin]
MIC ([1]; read-out: MIC (µg/mL) / RIF): < 0.063 µg/mL | MIC ([2]; read-out: MIC (µg/mL) / RIF): < 0.063 µg/mL | MIC ([3]; read-out: MIC (µg/mL) / RIF): 3.9 µg/mL (≈ 4.74 µM) | MIC ([4]; read-out: MIC (µg/mL) / RIF): 9.1 µg/mL (≈ 11.1 µM) | MIC ([5]; read-out: MIC (µg/mL) / RIF): 0.063 µg/mL (≈ 0.0766 µM) | MIC ([6]; read-out: MIC (µg/mL) / RIF): 0.063 µg/mL (≈ 0.0766 µM) | MIC ([7]; read-out: MIC (µg/mL) / RIF): 0.0065 µg/mL (≈ 0.0079 µM) | MIC ([8]; read-out: MIC (µg/mL) / RIF): 0.0063 µg/mL (≈ 0.00766 µM) | MIC ([9]; read-out: MIC (µg/mL) / RIF): 15 µg/mL (≈ 18.2 µM) | MIC ([16]; read-out: MIC RIF): 1.8 mg/L (≈ 2.19 µM) | MIC ([10]; read-out: MIC RIF): > 24 mg/L | MIC ([11]; read-out: MIC RIF): > 24 mg/L | MIC ([12]; read-out: MIC RIF): > 24 mg/L | MIC ([13]; read-out: MIC RIF): 7.4 mg/L (≈ 8.99 µM) | MIC ([15]; read-out: MIC RIF): 6.7 mg/L (≈ 8.14 µM)
